Experimental data: patent US20210076698A1, “METHODS OF MAINTAINING OR INCREASING GROWTH OR COGNITIVE DEVELOPMENT” (FONTERRA CO-OPERATIVE GROUP LIMITED, priority 2007, published 2021)

What was measured:
neuronal out growth = details: cited from earlier work
human placenta = test: Placental transfer trial, dual perfused human placental lobules (Example 3); format: in vitro ADME
Source text: Dual perfused human lobules were taken from six placentae of uncomplicated term pregnancies (normal elective Caesarean patients). Maternal and fetal arterial and venous supplies were isolated, catheterised and the placenta maintained by perfusion of sterile krebs buffer (that also contains serum albumin to aid transport of lipophilic substances) at room temperature in a sterile air perfusion chamber at constant flow rate and pressure. The perfusion technique used was modified from Glance et al (1984) according to Collier et al (2004).
Equilibration was performed for 60 min to assess physical integrity of tissue and circuits (fetal arterial pressure <40 mmHg and leakage of perfusate from fetal to maternal circuit <2 ml/h) then the maternal and fetal reservoirs replaced with fresh media containing doses of test substances. Time zero and then hourly samples are collected from all circuits and stored frozen for analysis. Metabolic viability of the preparation is assessed with samples collected hourly from maternal and fetal arteries and analysed for oxygen and carbon dioxide saturation, electrolytes and glucose consumption (Bayer 865 Blood Gas Analyzer, Bayer Diagnostics and lactate production (Hitachi 917, Roche Diagnostics). 10 μg/mL of milk-derived ganglioside mixture (GM3+GD3—isolated from G600™ precursor described above) was added to the maternal reservoir. Perfusion was conducted for up to 3 hours using a closed loop system. Samples were taken from both reservoirs at that point (t=0) and at regular time-points, snap frozen in liquid nitrogen, and subsequently assayed for GM3, GD3, and lobule viability.
GM3 and GD3 contents of the perfusates were measured by LC-MS using a Hypersil APS2 column, normal phase acetonitrile gradient and detected in the LTQ orbitrap in negative ion full scan, as described below. Perfusate samples were “protein crashed” by addition into methanol, allowed to stand for 60 min at 4° C. before centrifugation (20,000×g). An aliquot (10-50 μL) was loaded onto an online C18 trap, washed (50% MeOH), before eluted onto a Hypersil APS2 column (Thermo Finnigan, MA, USA). Gangliosides were separated on a normal phase gradient, and detected in the LTQ Orbitrap Mass spectrometer (ThermoFinnigan, Ma, USA) in negative ion mode. The LC-MS system was calibrated using GD3 and GM3 standards purchased from Matreya (Pa, USA). Lobule viability was assessed by Glucose uptake and lactate production, measured with an Autoanalyzer.

[1] = rats (Hungund et al, 1993); cited from earlier work
cholera toxin = cholera toxin (Vibrio cholerae serotype O1, UniProt P01556); details: cited from earlier work
[2] = 10 μg/mL GM3+GD3 mixture in maternal reservoir, perfusion up to 3 hours

Sequence of cholera toxin (P01556 22-124 limits assumed): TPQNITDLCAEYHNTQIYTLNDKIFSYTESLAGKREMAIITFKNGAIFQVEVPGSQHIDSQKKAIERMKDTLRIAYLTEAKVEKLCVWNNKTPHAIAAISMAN

Substance: GD3
- effect on neuronal out growth (neuronal out growth): does not
- concentrations in foetal perfusate (human placenta; LC-MS): below assay sensitivity
- reduction in maternal concentrations (human placenta; average, all cases): 25-30%

Substance: Ganglioside GM1a
- crossing of the placenta [1]: cross the placenta

Substance: GD1a
- binding of cholera toxin (cholera toxin): negligible binding

Substance: GM3
- increase of foetal perfusate concentration over time (human placenta; [2]): approximately 6 fold
- transfer across the human placenta (human placenta; [2]): evidence of transfer
- reduction of maternal perfusate concentration (human placenta; on average, from the starting maternal concentration): half
- maternal perfusate concentration before reduction (human placenta; starting level in maternal perfusate): approximately 300 ng/ml

Substance: GM2
- binding of cholera toxin (cholera toxin): negligible binding

Substance: ganglioside GM1
- binding of cholera toxin (cholera toxin): specific

Substance: 9-O-acetyl GD3 [reference compound]
- effect on neuronal out growth (neuronal out growth): promotes
